# Measured values taken from patent publication EP0532706B1, “REDUCTION OF CARDIOVASCULAR VESSEL OCCLUSIONS WITH ASCORBATE AND LIPOPROTEIN (a) BINDING INHIBITORS” (priority 1990, dated 1991).
# What was measured:
# in vivo = format: in vivo, guinea pig
# Procedure: Blood was drawn by ear puncture from the anesthetized animals and collected into EDTA containing tubes at the beginning, after 10 days, and after 3 weeks, when the animals were sacrificed. Plasma was stored at -80°C until analyzed. Lp(a) was detected in the plasma of the guinea pigs by use of SDS-polyacrylamide gels according to Neville ((1971) J. Biol. Chem. 246:6328-6334) followed by Western blotting according to Beisiegel, et al. ((1982) J. Biol. Chem. 257:13150-13156). Forty »l of plasma and 20 mg of arterial wall homogenate were applied in delipidated form per lane of the gel. The immunodetection of apo(a) was performed using a polyclonal anti-human apo(a) antibody (Immuno, Vienna, Austria) followed by a rabbit anti-sheep antibody (Sigma) and the gold-conjugated goat anti-rabbit antibody with subsequent silver enhancement (Bio-Rad). The determinations of cholesterol and triglycerides were done at California Veterinary Diagnostics (Sacramento) using the enzyme assay of Boehringer Mannheim. The amount of plasma ascorbate was determined by the dinitrophenylhydrazine method according to Schaffer, et al. ((1955) J. Biol. Chem. 212:59).
# To confirm the data obtained in Example 1, a second guinea pig experiment was conducted, using 33 male animals with a mean weight of 550 g and an approximate age of 5 months. One group of 8 animals served as a control and received 40 mg ascorbate/kg BW/d (group A). To induce hypoascorbemia 16 animals were fed 2 mg ascorbate/kg BW/d (group B). Group A and half of the animals of group B (progression sub-group) were sacrificed after 5 weeks as described above. Half of group B was kept for 2 more weeks, receiving daily intraperitoneal injection of 1.3 g Na-ascorbate/kg BW/d as a daily intra peritoneal injection with the intention to reduce the extent of atherosclerosis lesions. After this regression period these animals also were sacrificed.
# atherosclerotic lesions = experiment: Example 2: area of aortic atherosclerotic lesions in guinea pig groups; format: in vivo
# Source text: At necropsy the animals were anesthetized with metophase and exsanguinated. The aorta, heart and various other organs were taken for biochemical and histological analysis. The aorta was excised, the adventitial fat carefully removed, and the vessel was opened longitudinally. Subsequently the aorta was placed on a dark metric paper and a color slide was taken. The picture was projected and thereby magnified by an approximate factor of 10. The circumference of the ascending aorta, the aortic arch and thoracic aorta, as well as the atherosclerotic lesions in this area, were marked and measured with a digitalized planimetry system. The degree of atherosclerosis was expressed by the ratio of plaque area in relation to the total aortic area defined.
# To confirm the data obtained in Example 1, a second guinea pig experiment was conducted, using 33 male animals with a mean weight of 550 g and an approximate age of 5 months. One group of 8 animals served as a control and received 40 mg ascorbate/kg BW/d (group A). To induce hypoascorbemia 16 animals were fed 2 mg ascorbate/kg BW/d (group B). Group A and half of the animals of group B (progression sub-group) were sacrificed after 5 weeks as described above. […]
# [1] = Regression (after Scurvy): 2 more weeks with daily intraperitoneal 1.3 g Na-ascorbate/kg BW/d
# [2] = Scurvy (progress), group B: 2 mg ascorbate/kg BW/d, 5 weeks
SMILES,Plasma Cholesterol (in vivo; [1]),"concentration at 336 h (in vivo; guinea pig, in vivo, ip, 1300 mg/kg/day)",Atheroscl. Lesion (Percent of Aorta Thorac. Surface) (atherosclerotic lesions; [1]),"Plasma Cholesterol (in vivo; Control, group A: 40 mg ascorbate/kg BW/d, 5 weeks)",Plasma Cholesterol (in vivo; [2]),"concentration at 840 h (in vivo; guinea pig, in vivo, 2 mg/kg/day)","concentration at 840 h (in vivo; guinea pig, in vivo, 40 mg/kg/day)",Atheroscl. Lesion (Percent of Aorta Thorac. Surface) (atherosclerotic lesions; [2])
O=C1O[C@H]([C@@H](O)CO)C(O)=C1O [Na-ascorbate],33 mg/dL,20600 ng/mL,19% of Aorta Thorac. Surface,,,,,
O=C1O[C@H]([C@@H](O)CO)C(O)=C1O [ascorbate],,,,39 mg/dL,54 mg/dL,3010 ng/mL,5030 ng/mL,25% of Aorta Thorac. Surface
